Measured values from US9811635B2, “Immune and oxygen system measuring and drug screening method and apparatus” (priority 2010, dated 2017).

Key:
human blood = experiment: Immunogram Analyzer run: effect of borate and aspirin on ROX/BOX of human blood; type: cell-based; conditions: for effect on ROX and BOX: compared to saline runs on a patient's blood; for BOX / ROX / ROXNO / ROXO2: human blood aged 5 days at room temperature, 0.10 ml blood, 0.9 ml saline
Excerpt: (§1) First, a testing apparatus having a sample well 10 or cell with a sensor or probe 20 and a reader/processor 30 is provided. […] The testing probes are inserted into the cell and the testing apparatus is calibrated so that the reading for levels of signaling materials is at zero. For example, a compound A, such as signaling material-free saline solution can be added to cell E derive an instrument baseline reading free of signaling material. Alternatively, a gas that is free of signaling material can be bubbled into the cell.
Once a baseline showing a zero reading for signaling materials is established, an amount of blood D is added to cell E. This amount of blood D can be a small quantity, such as between about 0.02 mL and about 0.10 mL, of freshly drawn or frozen blood from a test individual or patient. For convenience, a 3.00 mL sample of anticoagulated blood may be frozen for later analysis. Very small samples of blood, such as less than about 0.02 mL, may also be analyzed.
(§2) An initial reading is made of the levels of signaling materials in the sample prior to any stress being imposed. The mixture of compound A and blood D is then exposed to an initial stress B. A suitable stress would be physical shear stress produced by the administering syringe and/or a rotating magnetic stirrer. The sensor within the cell E then determines a drop in concentration of signaling materials, which is presumably brought on by the addition of stress B. Generally, this drop in signaling materials concentration yields the value of BOX, which is correlated to the ability of the system to incorporate signaling materials for transport. Following this drop, any rise in concentration of signaling materials yields the value of ROX, which correlates to the capacity of the system to provide a reservoir of signaling materials.
The sensor of the testing apparatus preferably includes two or more sensors—one may be a membrane-based oxygen electrode 22, such as a polarographic Clark oxygen electrode, which measures O2, NO, H2S and other signaling materials that are unbound and can thus permeate through the membrane. In polarographic sensors, an anode, which is polarized, and a cathode are immersed in an electrolyte, into which oxygen and other signaling materials, permeates through the membrane. The anode/cathode pair causes current to flow in direct proportion to the amount of signaling material, such as oxygen, entering the system. The magnitude of the current thus directly correlates to the amount of signaling material entering the probe or sensor. It would be apparent that a membrane-based sensor necessarily depletes the sample of the material being tested as a result of consumption, yet the level of material consumed by the sensor is considered herein to be of an order of magnitude as to be insignificant for practical purposes.
The other sensor 24 or probe may be an optical fluorescence dissolved oxygen analyzer, such as an Ocean Optics ruthenium-coated fiber optical light emitting diode (LED) probe, and can also include other suitable light based devices, including a laser (hereinafter referred to collectively as an “optical sensor”), which determines an amount of value for O2 and the bundled O2 reservoir (ROXO2). Other sensors, such as chip-based sensors, may also be used on the basis of price, convenience, and sensitivity to new signaling and reactive substances.
As used herein, “ROXO2” is determinable O2 reservoir, and “ROXNO” is determinable NO reservoir. When bundled by the blood, and, in particular, the white blood cells, which are preparing signaling materials for use by the body, ROXO2 and ROXNO are unable to travel through the membrane sensor. However, after a BOX event occurs, increased levels of signaling materials in the sample, as determined by either the membrane or optical sensor, which tend to track each other, yield amounts of ROXO2 and ROXNO. […]

bovine blood standard = type: cell-based
Excerpt: as §1
as §2, with “Following this drop, any rise in concentration of signaling materials yields the value of ROX, which correlates to the capacity of the system to provide a reservoir of signaling materials.” left out
The other sensor 24 or probe may be an optical fluorescence dissolved oxygen analyzer, such as an Ocean Optics ruthenium-coated fiber optical light emitting diode (LED) probe, and can also include other suitable light based devices, including a laser (hereinafter referred to collectively as an “optical sensor”), which determines an amount of value for O2 and the bundled O2 reservoir (ROXO2). […]
Between these two or more sensors, therefore, the testing provides a reading for O2, NO, ROXO2, and NO that is in a bundled reservoir (ROXNO), as shown in FIGS. 6 and 7. […] Thus, the readings from the membrane probe and the optical probe together provide a total concentration of BOX and ROX (ROXO2+ROXNO) in the sample after exposure to physical stress B. Also, the slopes of the curves in FIGS. 6 and 7 yield valuable information with respect to the rates of reaction of these components. […]

Compound	effect on ROX and BOX (human blood)	release of NO (human blood; final run of FIG. 6, human blood)	BOX (human blood)	ROX (human blood)	ROXNO (human blood)	ROXO2 (human blood)	rise of NO (human blood; in 2 seconds, human blood)	Increases ROXO2 by (bovine blood standard)	Lowers BOX by (bovine blood standard)	Lowers ROXNO by (bovine blood standard)	effect on ROX and BOX (human blood; listed as borate eye wash)
CC(=O)Oc1ccccc1C(=O)O [Aspirin, aspirin]	affect ROX and BOX	very rapid releases of NO	35% of air saturation	74% of air saturation	34% of air saturation	29% of air saturation	a 37% rise				
acid-citrate-dextrose [ACD]								10%	Lowers BOX by 8%	25%	
borate	increases of BOX and ROX		41% of air saturation	79% of air saturation	31% of air saturation	27% of air saturation					affect ROX and BOX
